# Experimental data from ChEMBL document CHEMBL1157539, “Thousands of chemical starting points for antimalarial lead identification” (Nature, 2010).
# Test system: Plasmodium falciparum
# Test: GSK_TCMDC: Inhibition of Plasmodium falciparum 3D7 in whole erythrocytes, using parasite LDH activity as an index of growth.
# Type: functional, organism-based
# Conditions: Plasmodium falciparum, 3D7
row,SMILES,XC50
1,CCC(NCc1ccc(-c2cncc(C(=O)NCC(C)C)c2)cc1)c1ccccc1 (stereo not given),944 nM
2,O=C(Nc1cccc(-c2ccc(CN3CCCC3)cc2)c1)c1cccc(Cl)c1,430 nM
3,CN1CCCC(CN2CCN(Cc3ccc(-c4cccc(-c5nc6ccccc6[nH]5)c4)cc3)CC2)C1 (stereo not given),132 nM
4,CN(C)CCNC(=O)c1ccc(-c2ccc3c(Nc4ccccc4)c(C(N)=O)cnc3c2)cc1,728 nM
5,Cc1cc(N2CCC(C)CC2)nc2cc(O)ccc12,1180 nM
6,Cc1cc(C(=O)NC2CCN(CC3(c4ccc(Cl)cc4)CCC3)CC2)on1,92 nM
7,O=C(COc1ccccc1)N(Cc1ccc(-c2ccc(CNC3Cc4ccccc4C3)cc2)cc1)C1CCNCC1,1020 nM
8,Cc1sc(N2CCN(C)CC2)nc1C(=O)Nc1ccc(F)cc1C(F)(F)F,1070 nM
9,COc1cc2cc(Cc3cnc(N)nc3N)ccc2c(OC)c1OC,239 nM
10,O=[N+]([O-])c1cccc(/C=N/Nc2ccnc3ccc(C(F)(F)F)cc23)c1,1090 nM
11,Clc1ccc(CCNCCCCCCNCCc2ccc3c(c2)OCO3)cc1,1730 nM
12,CC(Cc1ccc(NC(=O)c2ccc(CC(C)NCc3ccc(Cl)c(Cl)c3)cc2)cc1)NCCc1cccc(Cl)c1 (stereo not given),1000 nM
13,O=C(COc1cnc2ccccc2n1)Nc1ccccc1Sc1ccc(Cl)cc1,728 nM
14,Cc1[nH]c(C)c(-c2ccc(-c3ccc(Cl)cc3)nc2)c(=O)c1Br,113 nM
15,O=C(O)c1cccc2c(-c3ccncc3)cccc12,937 nM
16,O=C(Nc1ccc(Cn2ncc(N3CCCNCC3)c(Cl)c2=O)cc1)Nc1cc(C(F)(F)F)cc(C(F)(F)F)c1,588 nM
17,CN(C)CCCc1cc(NC(=O)Nc2cccc(Cl)c2Cl)ccc1I,539 nM
18,CC(=O)Nc1cc(C(=O)Nc2cccc(-c3cccc(-c4nc5cccc(C)c5[nH]4)c3)c2)ccc1C,329 nM
19,Cc1nc(Nc2ccc(F)cc2)nc(N2CCc3cc(O)ccc3C2C)c1C (stereo not given),754 nM
20,OC1CCCN(Cc2cccc(-c3ccc(-c4nc5cc(C(F)(F)F)ccc5[nH]4)cc3)c2)C1 (stereo not given),690 nM
21,CCNc1cc(C(=O)N[C@@H](Cc2ccccc2)[C@H](O)CNC2CCC(C)(C)CC2)cc(N2CCCCS2(=O)=O)c1,647 nM
22,COc1ccc(NC(=O)/C=C/c2ccccc2Cl)cc1OCCN1CCC(NCc2cccnc2)CC1,761 nM
23,O=C(C=Cc1ccc(Br)cc1)N1CCC(CCN2CCC(c3c[nH]c4ccccc34)CC2)CC1,919 nM
24,CC(C)OC(=O)c1cccnc1SCC(=O)Nc1ccc(C(F)(F)F)cc1Cl,400 nM

row,SMILES,XC50
1,C#CCN(Cc1cc2c(=O)[nH]c(N)nc2cc1C)c1ccc(C(=O)N[C@@H](CCC(=O)O)C(=O)O)cc1,625 nM
2,COc1ccc2nc(-c3ccc(C(=O)NCCCN4CCN(c5cc(Cl)ccc5OC)CC4)cc3)[nH]c2c1,772 nM
3,COCCOc1ccc(Nc2nccc(-c3c(-c4cccc(NC(=O)c5c(F)cccc5F)c4)nn4ccccc34)n2)cc1F,950 nM
4,CC(C)c1ccc(S(=O)(=O)Nc2cccc(CCN3CCC(N4CCCCC4)CC3)c2)cc1,1120 nM
5,COc1ccc(Cn2c(SCc3ccc(C)cc3)nc3cc(OC)c(OC)cc3c2=N)cc1Cl,977 nM
6,O=C(NC1CCN(Cc2ccccc2)CC1)c1cc(C(=O)NC2CCN(Cc3ccccc3)CC2)cc(C(=O)NC2CCN(Cc3ccccc3)CC2)c1,1040 nM
7,Cc1ccc(Cn2ncc(N3CCCNCC3)c(Cl)c2=O)cc1NC(=O)Nc1ccc(-c2ccccc2)cc1,625 nM
8,O=S(=O)(c1c(Cl)cccc1Cl)N1CCCCC(c2ccc(C(F)(F)F)cc2)=N1,126 nM
9,CCCn1c(Sc2ccc(C#N)c([N+](=O)[O-])c2)nnc1-c1ccc(Cl)cc1,537 nM
10,Cc1cc(CN2CC[C@H](NC(=O)c3ccc(Cl)c(Cl)c3)C2)ccc1OCCN1CCNCC1,944 nM
11,COc1ccc(NC(=O)[C@H](Cc2ccccc2)Nc2cc(C)nc(NCCc3cccnc3)n2)cc1,760 nM
12,O=C(Nc1ccc(-c2cccc(-c3nc4cc(F)ccc4[nH]3)c2)cc1)c1ccncc1,719 nM
13,CCCCN(CCCC)C(=O)CC(O)c1cc2c(Cl)cc(Cl)cc2c2cc(C(F)(F)F)ccc12 (stereo not given),1210 nM
14,O=C(NCCc1ccccc1F)c1ccc(N2CCN(c3ccncc3)CC2)cn1,1080 nM
15,Cc1cccc2nc(-c3ccc(-c4ccc(CNCc5ccccc5)cc4)cc3)[nH]c12,508 nM
16,COc1ccc(Br)cc1/C=C/C(=O)Nc1cccc(C2CCCN(C)C2)c1 (stereo not given),892 nM
17,COc1ccc(-c2ccc(NC(=O)c3ccc(C#N)cc3)cc2)cc1CN1CCC(O)CC1,581 nM
18,O=C(Nc1cccc(-c2cccc(-c3nc4cc(F)ccc4[nH]3)c2)c1)Nc1ccc2c(c1)OCO2,137 nM
19,CN1CCCC(CN2CCN(Cc3ccc(-c4ccc(-c5nc6ccccc6[nH]5)s4)cc3)CC2)C1 (stereo not given),133 nM
20,CCCC(N)C(=O)NC1CCN(c2c(F)c(N)c3c(=O)c(C(=O)O)cn4c3c2Oc2ccccc2-4)C1 (stereo not given),359 nM
21,COCCNCc1nc(-c2ccc3c(Nc4ccc(F)c(O)c4)ccnc3c2)cs1,695 nM
22,CN(C)CCNCc1ncsc1-c1ccc2c(Nc3ccc(F)cc3Cl)ccnc2c1,1470 nM
23,Cc1cc(Nc2ccc(C(C)(C)C)cc2)c2[nH]ncc2n1,1160 nM
24,CCOc1cc2ncnc(Nc3cc(Cl)c(Cl)c(Cl)c3)c2cc1OCC,197 nM

row,SMILES,XC50
1,Fc1ccc2c(NN=Cc3ccccc3)ccnc2c1,739 nM
2,O=C(NCc1ccc(Cl)c(Cl)c1)c1ccc(-c2nc3ccc(F)cc3[nH]2)cc1,1030 nM
3,COc1ccc(-c2ccc(CNC(=O)c3ccc(Cl)cc3)c(F)c2)cc1CN1CCCN(C)CC1,705 nM
4,Cc1ccc(Nc2nc3cc(Nc4ccnc(Nc5ccc(CS(C)(=O)=O)cc5)n4)ccc3o2)cc1,765 nM
5,Cc1ccccc1CNC(=O)Nc1cccc(-c2csc(NC(=N)N)n2)c1,700 nM
6,CN1CCCC(CN2CCN(Cc3cccc(-c4ccc(-c5nc6cc(C(F)(F)F)ccc6[nH]5)cc4)c3)CC2)C1 (stereo not given),145 nM
7,COc1cc2c(C3CCN(CC4CCN(C(=O)/C=C/c5ccc(Cl)c(Cl)c5)CC4)CC3)c[nH]c2cn1,730 nM
8,Cn1nc(-c2ccc(CN[C@@H]3CCc4ccc(O)cc43)cc2)c2cnc(NC3CCCC3)nc21,1120 nM
9,N=C(N)Nc1nc(-c2ccc(NC(=N)N3CCC[C@H]3CN3CCCC3)cc2)cs1,1110 nM
10,Cc1cc2ncn(-c3ccnc(N4CCN(CCCN5CCCC5)CC4)n3)c2cc1C,828 nM
11,Cc1ccc2nc3ccccc3c(NCCN3CCN(C)CC3)c2c1,587 nM
12,CC(C)(C)C1CCc2onc(C(=O)Nc3cc(Cl)ccc3O)c2C1 (stereo not given),779 nM
13,CCc1cccc(OCC2CCCN(c3ccc(C(=O)NC4CC4)cn3)C2)c1 (stereo not given),1440 nM
14,O=C(Nc1cccc(-c2nn3ncccc3c2-c2ccnc(Nc3cccc(C(F)(F)F)c3)n2)c1)c1c(F)cccc1F,648 nM
15,CN1CC[C@@H](Oc2cc(NC(=O)Nc3ccccc3Br)ccc2Cl)C1,1100 nM
16,CC(C)[C@H](NC(=O)c1ccc(O)c(-c2ccc(Cl)c(Cl)c2)c1)C(=O)NCCN1CCCCC1,339 nM
17,Cc1cc(-c2cccc3c(C(=O)N4CCc5cc6nccc(N7CCN8CCC[C@H]8C7)c6cc54)cccc23)cc(C)n1,709 nM
18,CN(C)c1ccc2nc(N)nc(N)c2c1Cl,475 nM
19,CC(Cc1ccc(C(=O)OCCOC(=O)c2ccc(CC(C)NCC(O)c3cccc(C(F)(F)F)c3)cc2)cc1)NCC(O)c1cccc(C(F)(F)F)c1 (stereo not given),820 nM
20,O=C(/C=C/c1ccc(Cl)c(Cl)c1)NCCCCCCN1CCCN(C(=O)Nc2cc(F)cc(F)c2)CC1,708 nM
21,c1ccc(-c2ccc(-c3nc4ccccc4[nH]3)cc2)cc1,809 nM
22,CCc1ccc(C2CCN(CCCCNC(=O)c3ccc(NC(=O)c4ccc(Cl)cc4)cc3)CC2)c(OC(C)=O)c1,145 nM
23,CCCCN(CCCC)CCC(O)C(=Cc1ccc(Cl)cc1Cl)c1ccc(C(F)(F)F)cc1N (stereo not given),193 nM
24,O=C(/C=C/c1ccc([N+](=O)[O-])cc1)N1CCC(NS(=O)(=O)c2cccc(C(F)(F)F)c2)CC1,847 nM

row,SMILES,XC50
1,COc1ccc(C(=O)CCC(=O)N(Cc2ccc(-c3ccc(CNCc4cccnc4)cn3)cc2)C2CCN(Cc3ccccc3)CC2)cc1F,978 nM
2,Cc1cc(CNCC2CCC(CNCCCc3ccccc3)CC2)ccc1O (stereo not given),871 nM
3,Nc1ccc(Nc2ccnc3ccc(C(F)(F)F)cc23)cc1O,716 nM
4,COc1ccc(NC(=O)CCNc2cc(C)nc(Nc3ccccc3)n2)cc1,1100 nM
5,CN1CCN(c2nsc3ccc(-c4ccc(NC(=O)Nc5cc(C(F)(F)F)ccc5F)cc4)cc23)CC1,245 nM
6,CCCCCCN1CCCN(Cc2cccc(NC(=O)c3cc4ccccc4s3)c2)CC1,660 nM
7,Cc1ccc(-c2cc3nc4c(c(NCCCn5ccnc5)n3n2)CCC4)cc1,925 nM
8,CC(C)[C@H]1CC[C@H](C)C[C@@H]1OC(=O)N[C@@H](Cc1ccc(O)cc1)C(=O)NC1CCN(Cc2ccc(OCCCN(C)C)cc2)C1 (stereo not given in full),764 nM
9,CN(CCc1ccccc1)c1ncc(-c2ccccc2CNCc2ccccc2O)cn1,1020 nM
10,CC(C)CCNCC(O)Cn1c2ccc(Cl)cc2c2cc(Cl)ccc21 (stereo not given),447 nM
11,Oc1ccc2[nH]cc(C3CCN(CCCNCc4ccc(-c5ccccc5)cc4)CC3)c2c1,725 nM
12,COc1ccc(C=C2SC(=O)N=C2Nc2ccccc2)c(OC)c1,470 nM
13,CCCCCN1CCCC(NS(=O)(=O)c2ccc(C(=O)Nc3ccc(C(F)(F)F)cc3)cc2)C1 (stereo not given),1630 nM
14,O=C(Nc1ccc(-c2ccc(CN3CCNCC3)cc2)cc1)c1cccc(Cl)c1,894 nM
15,O=S(=O)(Nc1cccc(CCN2CCC(N3CCCCC3)CC2)c1)c1cccc2cccnc12,851 nM
16,CCCN(CC1CC1)c1ncc(-c2cccc(CNCCC3CCCN3C)c2)cn1 (stereo not given),749 nM
17,CCN1CCC(N(Cc2ccc(-c3ccc(C(F)(F)F)cc3)cc2)C(=O)Cn2c(CCc3cccc(F)c3F)cc(=O)c3c2CCCC3)CC1,755 nM
18,CN(C)S(=O)(=O)c1ccc(N2C(=O)C3C(C2=O)C2(c4ccccc4)C(=O)C3(c3ccccc3)C(c3ccccc3)=C2c2ccccc2)cc1 (stereo not given),951 nM
19,CCOC(=O)[C@H](Cc1cc([N+](=O)[O-])c(Oc2ccc(OC)c(Cc3ccc(OC)c(C(C)C)c3)c2)c([N+](=O)[O-])c1)NC(=O)C(F)(F)F,984 nM
20,COc1ccc(OC)c(NC(=O)C2c3ccccc3C(=O)N(CC(C)C)C2c2cccs2)c1 (stereo not given),805 nM
21,CCOC(=O)Cn1ccc2c(NCc3ccccc3)nc(C)nc21,374 nM
22,COc1cc2nc(N3CCC(CNC(=O)c4ccc(-c5ccc(-c6noc(C)n6)cc5C)cc4)CC3)nc(N)c2cc1OC,215 nM
23,Cc1nc2ccc(-c3nc4cc(N)ccc4[nH]3)cc2[nH]1,233 nM
